{"source": "ChEMBL document CHEMBL3232896", "about": "“Biological evaluation of new mimetics of annonaceous acetogenins: alteration of right scaffold by click linkage with aromatic functionalities” (Eur J Med Chem, 2014)", "key": {"[1]": {"experiment": "Antiproliferative activity against human HLF assessed as growth inhibition after 72 hrs by MTT assay", "conditions": "HLF cells"}, "[2]": {"experiment": "Antiproliferative activity against human SGC7901 cells assessed as growth inhibition after 72 hrs by MTT assay", "type": "functional", "conditions": "SGC-7901, 72 h"}, "HCT-116": {"tested_on": "HCT-116", "experiment": "Antiproliferative activity against human HCT116 cells assessed as growth inhibition after 72 hrs by MTT assay", "type": "functional", "conditions": "HCT-116, 72 h"}}, "data": [{"smiles": "CCCCCCCCCC[C@H](O)COCCOC[C@@H](O)CCCCCCCCCCCCC1=C[C@H](C)OC1=O", "values": [{"measurement": "GI50 at 72 h", "setting": "[1]", "value": 27.8, "unit": "µM"}, {"measurement": "GI50", "setting": "[2]", "value": 0.076, "unit": "µM"}, {"measurement": "GI50", "setting": "HCT-116", "value": 0.181, "unit": "µM"}]}, {"smiles": "O[C@H](COCCOC[C@@H](O)Cc1cn(-c2ccc3c(c2)OCCO3)nn1)Cc1ccc(-c2ccccc2)cc1", "values": [{"measurement": "GI50 at 72 h", "setting": "[1]", "value": 5.2, "unit": "µM"}, {"measurement": "GI50", "setting": "[2]", "value": 6.4, "unit": "µM"}, {"measurement": "GI50", "setting": "HCT-116", "value": 16.5, "unit": "µM"}]}, {"smiles": "O[C@H](COCCOC[C@@H](O)Cc1cn(-c2cncnc2)nn1)Cc1ccc(-c2ccccc2)cc1", "values": [{"measurement": "GI50 at 72 h", "setting": "[1]", "value": "> 100", "unit": "µM"}, {"measurement": "GI50", "setting": "[2]", "value": "> 100", "unit": "µM"}, {"measurement": "GI50", "setting": "HCT-116", "value": "> 100", "unit": "µM"}]}, {"smiles": "O[C@H](COCCOC[C@@H](O)Cc1cn(-c2cccs2)nn1)Cc1ccc(-c2ccccc2)cc1", "values": [{"measurement": "GI50 at 72 h", "setting": "[1]", "value": "> 100", "unit": "µM"}, {"measurement": "GI50", "setting": "[2]", "value": 33.4, "unit": "µM"}, {"measurement": "GI50", "setting": "HCT-116", "value": 33.4, "unit": "µM"}]}, {"smiles": "O[C@H](COCCOC[C@@H](O)Cc1cn(-c2cncc3ccccc23)nn1)Cc1ccc(-c2ccccc2)cc1", "values": [{"measurement": "GI50 at 72 h", "setting": "[1]", "value": 10.8, "unit": "µM"}, {"measurement": "GI50", "setting": "[2]", "value": 29.3, "unit": "µM"}, {"measurement": "GI50", "setting": "HCT-116", "value": 17.8, "unit": "µM"}]}, {"smiles": "O[C@H](COCCOC[C@@H](O)Cc1cn(-c2cccnc2)nn1)Cc1ccc(-c2ccccc2)cc1", "values": [{"measurement": "GI50 at 72 h", "setting": "[1]", "value": "> 100", "unit": "µM"}, {"measurement": "GI50", "setting": "[2]", "value": 29.8, "unit": "µM"}, {"measurement": "GI50", "setting": "HCT-116", "value": 46.8, "unit": "µM"}]}, {"smiles": "O[C@H](COCCOC[C@@H](O)Cc1cn(-c2ccc(N3CCOCC3)cc2)nn1)Cc1ccc(-c2ccccc2)cc1", "values": [{"measurement": "GI50 at 72 h", "setting": "[1]", "value": "> 100", "unit": "µM"}, {"measurement": "GI50", "setting": "[2]", "value": 20.7, "unit": "µM"}, {"measurement": "GI50", "setting": "HCT-116", "value": 8.3, "unit": "µM"}]}, {"smiles": "O=C1COc2ccc(-n3cc(C[C@H](O)COCCOC[C@@H](O)Cc4ccc(-c5ccccc5)cc4)nn3)cc2N1", "values": [{"measurement": "GI50 at 72 h", "setting": "[1]", "value": "> 100", "unit": "µM"}, {"measurement": "GI50", "setting": "[2]", "value": 15.2, "unit": "µM"}, {"measurement": "GI50", "setting": "HCT-116", "value": 42.5, "unit": "µM"}]}, {"smiles": "O[C@H](COCCOC[C@@H](O)Cc1cn(-c2ccc3[nH]ccc3c2)nn1)Cc1ccc(-c2ccccc2)cc1", "values": [{"measurement": "GI50 at 72 h", "setting": "[1]", "value": "> 100", "unit": "µM"}, {"measurement": "GI50", "setting": "[2]", "value": 45.6, "unit": "µM"}, {"measurement": "GI50", "setting": "HCT-116", "value": 15.5, "unit": "µM"}]}, {"smiles": "O=c1[nH]c2ccc(-n3cc(C[C@H](O)COCCOC[C@@H](O)Cc4ccc(-c5ccccc5)cc4)nn3)cc2s1", "values": [{"measurement": "GI50 at 72 h", "setting": "[1]", "value": 47.7, "unit": "µM"}, {"measurement": "GI50", "setting": "[2]", "value": 10.5, "unit": "µM"}, {"measurement": "GI50", "setting": "HCT-116", "value": 9.2, "unit": "µM"}]}, {"smiles": "O[C@H](COCCOC[C@@H](O)Cc1cn(Cc2ccc(Oc3ccccc3)cc2)nn1)Cc1ccc(-c2ccccc2)cc1", "values": [{"measurement": "GI50 at 72 h", "setting": "[1]", "value": 22.8, "unit": "µM"}, {"measurement": "GI50", "setting": "[2]", "value": 4.5, "unit": "µM"}, {"measurement": "GI50", "setting": "HCT-116", "value": 3.4, "unit": "µM"}]}, {"smiles": "N#Cc1ccc(Cn2cc(C[C@H](O)COCCOC[C@@H](O)Cc3ccc(-c4ccccc4)cc3)nn2)cc1", "values": [{"measurement": "GI50 at 72 h", "setting": "[1]", "value": 36.6, "unit": "µM"}, {"measurement": "GI50", "setting": "[2]", "value": 7.7, "unit": "µM"}, {"measurement": "GI50", "setting": "HCT-116", "value": 8.8, "unit": "µM"}]}, {"smiles": "O[C@H](COCCOC[C@@H](O)Cc1cn(Cc2ccc3ccccc3c2)nn1)Cc1ccc(-c2ccccc2)cc1", "values": [{"measurement": "GI50 at 72 h", "setting": "[1]", "value": 19.8, "unit": "µM"}, {"measurement": "GI50", "setting": "[2]", "value": 12.1, "unit": "µM"}, {"measurement": "GI50", "setting": "HCT-116", "value": 8.6, "unit": "µM"}]}, {"smiles": "O[C@H](COCCOC[C@@H](O)Cc1cn(Cc2cccc(-c3ccccc3)c2)nn1)Cc1ccc(-c2ccccc2)cc1", "values": [{"measurement": "GI50 at 72 h", "setting": "[1]", "value": "> 100", "unit": "µM"}, {"measurement": "GI50", "setting": "[2]", "value": 10.6, "unit": "µM"}, {"measurement": "GI50", "setting": "HCT-116", "value": 7.2, "unit": "µM"}]}, {"smiles": "O[C@H](COCCOC[C@@H](O)Cc1cn(Cc2ccc(C(F)(F)F)cc2)nn1)Cc1ccc(-c2ccccc2)cc1", "values": [{"measurement": "GI50 at 72 h", "setting": "[1]", "value": 29.8, "unit": "µM"}, {"measurement": "GI50", "setting": "[2]", "value": 8.7, "unit": "µM"}, {"measurement": "GI50", "setting": "HCT-116", "value": 2.5, "unit": "µM"}]}, {"smiles": "O[C@H](COCCOC[C@@H](O)Cc1c[nH]nn1)Cc1ccc(-c2ccccc2)cc1", "values": [{"measurement": "GI50 at 72 h", "setting": "[1]", "value": "> 100", "unit": "µM"}, {"measurement": "GI50", "setting": "[2]", "value": "> 100", "unit": "µM"}, {"measurement": "GI50", "setting": "HCT-116", "value": "> 100", "unit": "µM"}]}, {"smiles": "COC1=C(OC)C(=O)C(CCCCCCCCCCn2cc(C[C@H](O)COCCOC[C@@H](O)Cc3ccc(-c4ccccc4)cc3)nn2)=C(C)C1=O", "values": [{"measurement": "GI50 at 72 h", "setting": "[1]", "value": 18.3, "unit": "µM"}, {"measurement": "GI50", "setting": "[2]", "value": 3.8, "unit": "µM"}, {"measurement": "GI50", "setting": "HCT-116", "value": 0.6, "unit": "µM"}]}, {"smiles": "COC1=C(C)C(=O)C(CCCCCCCCCCn2cc(C[C@H](O)COCCOC[C@@H](O)Cc3ccc(-c4ccccc4)cc3)nn2)=C(C)C1=O", "values": [{"measurement": "GI50 at 72 h", "setting": "[1]", "value": 35.1, "unit": "µM"}, {"measurement": "GI50", "setting": "[2]", "value": 0.505, "unit": "µM"}, {"measurement": "GI50", "setting": "HCT-116", "value": 4, "unit": "µM"}]}, {"smiles": "CC1=C(C)C(=O)C(CCCCCCCCCCn2cc(C[C@H](O)COCCOC[C@@H](O)Cc3ccc(-c4ccccc4)cc3)nn2)=C(C)C1=O", "values": [{"measurement": "GI50 at 72 h", "setting": "[1]", "value": "> 25", "unit": "µM"}, {"measurement": "GI50", "setting": "[2]", "value": 0.35, "unit": "µM"}, {"measurement": "GI50", "setting": "HCT-116", "value": 0.9, "unit": "µM"}]}, {"smiles": "CC1=C(CCCCCCCCCCn2cc(C[C@H](O)COCCOC[C@@H](O)Cc3ccc(-c4ccccc4)cc3)nn2)C(=O)c2ccccc2C1=O", "values": [{"measurement": "GI50 at 72 h", "setting": "[1]", "value": 22.6, "unit": "µM"}, {"measurement": "GI50", "setting": "[2]", "value": 0.39, "unit": "µM"}, {"measurement": "GI50", "setting": "HCT-116", "value": 3, "unit": "µM"}]}, {"smiles": "COC1=C(OC)C(=O)C(CCCCCCn2cc(C[C@H](O)COCCOC[C@@H](O)Cc3ccc(-c4ccccc4)cc3)nn2)=C(C)C1=O", "values": [{"measurement": "GI50 at 72 h", "setting": "[1]", "value": "> 50", "unit": "µM"}, {"measurement": "GI50", "setting": "[2]", "value": 16.6, "unit": "µM"}, {"measurement": "GI50", "setting": "HCT-116", "value": 5, "unit": "µM"}]}, {"smiles": "COC1=C(OC)C(=O)C(CCCCCCCCCCCCCCCn2cc(C[C@H](O)COCCOC[C@@H](O)Cc3ccc(-c4ccccc4)cc3)nn2)=C(C)C1=O", "values": [{"measurement": "GI50 at 72 h", "setting": "[1]", "value": "> 50", "unit": "µM"}, {"measurement": "GI50", "setting": "[2]", "value": 2.49, "unit": "µM"}, {"measurement": "GI50", "setting": "HCT-116", "value": 1.5, "unit": "µM"}]}, {"smiles": "COc1cccc2c1C(=O)c1c(O)c3c(c(O)c1C2=O)C[C@@](O)(C(=O)CO)C[C@@H]3O[C@H]1C[C@H](N)[C@H](O)[C@H](C)O1", "note": "[DOXORUBICIN]", "values": [{"measurement": "GI50 at 72 h", "setting": "[1]", "value": 0.33, "unit": "µM"}, {"measurement": "GI50", "setting": "[2]", "value": 0.55, "unit": "µM"}, {"measurement": "GI50", "setting": "HCT-116", "value": 0.15, "unit": "µM"}]}]}
